Assay [1] deals with T1, glutathione-S-transferase (GST) tagged LXRbeta LBD (ligand binding domain) (Homo sapiens, UniProt P55055).
T1 construct: purchased Invitrogen pv4658.pps
T1 sequence (P55055 222-460 limits assumed): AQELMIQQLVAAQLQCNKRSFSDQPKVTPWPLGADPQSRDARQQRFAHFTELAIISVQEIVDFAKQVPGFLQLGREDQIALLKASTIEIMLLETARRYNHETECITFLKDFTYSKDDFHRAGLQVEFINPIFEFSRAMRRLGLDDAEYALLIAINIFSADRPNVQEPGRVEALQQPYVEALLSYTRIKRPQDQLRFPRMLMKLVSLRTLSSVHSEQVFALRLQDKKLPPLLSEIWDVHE
Description: LanthaScreen TR-FRET Liver X Receptor Coactivator Assay, LXR beta-LBD. Particulars: for Emax: efficacy in relation to reference dual agonist T1317, read-out: LXR beta activity at max dose (%) (Emax); for pEC50: potency (Inflection Point) of co-activator recruitment, TR-FRET, read-out: LXR beta IP. The format is biochemical. A digest of the protocol: (§1)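 TR-FRET coactivator recruitment read-out: compounds first received either LBD, followed by a mix of terbium-labelled anti-GST antibody and fluorescein coactivator peptide. Signal measured by time-resolved FRET once plates had incubated at room temperature.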
Background: In TR-FRET formats the signal depends on donor and acceptor labels being close together.

Assay [2] concerns the target T2, glutathione-S-transferase (GST) tagged LXRalpha LBD (ligand binding domain) (Homo sapiens, UniProt Q13133).
T2 construct: purchased Invitrogen pv4655
T2 sequence (Q13133 209-447 limits assumed): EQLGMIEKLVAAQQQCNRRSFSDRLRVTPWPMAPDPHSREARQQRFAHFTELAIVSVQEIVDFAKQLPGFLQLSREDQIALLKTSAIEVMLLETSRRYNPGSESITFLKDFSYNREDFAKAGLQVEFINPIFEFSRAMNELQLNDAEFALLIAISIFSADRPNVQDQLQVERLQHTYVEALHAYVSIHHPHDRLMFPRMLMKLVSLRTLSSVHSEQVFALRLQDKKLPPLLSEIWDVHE
As to the kind of experiment: LanthaScreen TR-FRET Liver X Receptor Coactivator Assay, LXR alpha-LBD. The format is biochemical. The conditions noted are these: for Emax: efficacy in relation to reference dual agonist T1317, read-out: LXR alpha activity at max dose (%) (Emax); for pEC50: potency (Inflection Point) of co-activator recruitment, TR-FRET, read-out: LXR alpha IP. A digest of the protocol:
as §1

By Emax is commonly meant the maximal effect, on the per cent scale that the assay sets.

pEC50: −log10 of the molar value.

`CN(C)C(=O)c1ccc(-c2cnc(N3CCN(C(=O)Cc4cn5ccsc5n4)CC3)c(C#N)c2)cc1Cl` [Example 2-24, 2-chloro-4-{5-cyano-6-[4-(imidazo[2,1-b][1,3]thiazol-6-ylacetyl)piperazin-1-yl]pyridin-3-yl}-N,N-dimethylbenzamide]: in assay [1], the Emax was 104% and the pEC50 is 6.33. Further, in assay [2], the maximal effect (Emax) amounted to 42% and the pEC50 is 4.53.
Taken in the same sequence, the figures for `CN(CC(O)CO)C(=O)c1ccc(-c2cnc(N3CCN(C(=O)OC(C)(C)C)CC3)c(C#N)c2)cc1Cl` (stereo not drawn) [Example 5-18, tert-butyl 4-(5-{3-chloro-4-[(2,3-dihydroxypropyl) (methyl)carbamoyl]phenyl}-3-cyanopyridin-2-yl)piperazine-1-carboxylate] were 70%, 6.52, 40% and 5.07.
For the molecule `CN(C)C(=O)c1ccc(-c2cnc(N3CCN(S(=O)(=O)c4ccccc4)CC3)c(C#N)c2)cc1Cl` [Example 1-16, 2-chloro-4-{5-cyano-6-[4-(phenylsulfonyl)piperazin-1-yl]pyridin-3-yl}-N,N-dimethylbenzamide], the Emax in assay [1] came out at 69%; in assay [2], 63%. For the same molecule, the pEC50 in assay [1] was 6.84; in assay [2], 4.30.
On to `CN(CCn1cncn1)C(=O)c1ccc(-c2cnc(N3CCN(C(=O)[C@](O)(c4ccccc4)C(F)(F)F)CC3)c(C#N)c2)cc1Cl` [Example 6-1, 2-chloro-4-(5-cyano-6-{4-[(2R)-3,3,3-trifluoro-2-hydroxy-2-phenylpropanoyl]piperazin-1-yl}pyridin-3-yl)-N-methyl-N-[2-(1H-1,2,4-triazol-yl)ethyl]benzamide], for which, in assay [1], the Emax came out at 101% and the pEC50 was 8.70. Besides, in assay [2], the Emax was 33% and the pEC50 is 5.93.
Taken in the same sequence, the figures for `CN(C)C(=O)c1ccc(-c2cnc(N3CCN(S(=O)(=O)C4CC4)CC3)c(C#N)c2)cc1Cl` [Example 1-2, 2-chloro-4-{5-cyano-6-[4-(cyclopropylsulfonyl)piperazin-1-yl]pyridin-3-yl}-N,N-dimethylbenzamide] were 68%, 6.27, 37% and 4.65.
In the case of `CN(C)C(=O)c1ccc(-c2cnc(N3CC4CCC3CN4C(=O)OC(C)(C)C)c(C#N)c2)cc1Cl` (stereo not drawn) [Example 8-8, tert-butyl 5-{5-[3-chloro-4-(dimethylcarbamoyl)phenyl]-3-cyanopyridin-2-yl}-2,5-diazabicyclo[2.2.2]octane-2-carboxylate], the Emax in assay [1] was found to be 68%; in assay [2], 38%. For the same molecule, the pEC50 in assay [1] is 7.19; in assay [2], 6.05.
On to `CC(O)CN(CC(C)O)C(=O)c1ccc(-c2cnc(N3CCN(C(=O)OC(C)(C)C)CC3)c(C#N)c2)cc1Cl` (stereo not drawn) [Example 5-25, tert-butyl 4-(5-{4-[bis(2-hydroxypropyl)carbamoyl]-3-chlorophenyl}-3-cyanopyridin-2-yl)piperazine-1-carboxylate], for which the Emax was found to be 56% in assay [1] and 36% in assay [2]. The pEC50 was 6.13 in assay [1] and 5.10 in assay [2].
Taken in the same sequence, the figures for `CCCC(O)(C(=O)N1CCN(c2ncc(-c3ccc(C(=O)N(C)C)c(Cl)c3)cc2C#N)CC1)C(F)(F)F` (stereo not drawn) [Example 2-25, 2-chloro-4-(5-cyano-6-{4-[2-hydroxy-2-(trifluoromethyl)pentanoyl]piperazin-1-yl}pyridin-3-yl)-N,N-dimethylbenzamide] were 100%, 53%, 7.03 and 5.38.
Taken in the same sequence, the figures for `CN(CCc1ccccc1)C(=O)c1ccc(-c2cnc(N3CCN(C(=O)OC(C)(C)C)CC3)c(C#N)c2)cc1Cl` [Example 5-26, tert-butyl 4-(5-{3-chloro-4-[methyl(2-phenylethyl)carbamoyl]phenyl}-3-cyanopyridin-2-yl)piperazine-1-carboxylate] were 74%, 48%, 5.37 and 4.59.
